{
  "source": "patent US20070197432A1",
  "about": "“Peptides for preventing, diagnosing and treating animal and/or human leptospirosis” (priority 2002, published 2007)",
  "key": {"[1]": {"tested_on": "Leptospira interrogans sl serovar canicola", "experiment": "Dogs immunized with PP-KLH, canicola challenge: PCR on plasma, urine and kidney samples", "format": "in vivo, dog", "method": "(§1) The animals are given a challenge at a rate of one virulent culture of 4 to 6 days. For an immunized batch and a control batch, each animal received, in each eye, 0.3 ml of the culture having a titer of 120 TU (i.e. 2×10^8 leptospires per ml) and, intraperitoneally, 4 ml of the same culture diluted ten-fold.\nThe presence of leptospires was studied jointly by PCR (PCR specific for pathogenic leptospires) and by culturing, in the urine at D0, D10, D14, D18, D25 and D41 and in the kidney samples from each animal at the end of the trial at […].\nMoreover, the bacteriological results were quantified through the setting up of a coefficient: • by immediate culturing. A single live leptospire can give a positive culture. A relative estimation of the bacterial concentration is expressed by means of a coefficient of 3 when a culture has developed in the third serial dilution prepared from the sample. • by PCR on frozen samples. […] A coefficient of 1 was assigned to a PCR with a weak signal and a coefficient of 2 to a strongly positive PCR."}, "[2]": {"experiment": "Dogs immunized with PP-KLH, immunization phase (tolerance, weight)", "format": "in vivo, dog", "method": "(§2) An immunization/challenge protocol was carried out in order to evaluate the protection that can be provided by the PP peptide (SEQ ID No. 1) NH2-coupled to the KLH carrier protein (FIG. 14).\n(§3) This construct is administered subcutaneously without adjuvant, with PBS as a negative control (batch 2).\n(§4) Batch 1: 6 SPF dogs, 2 injections of 250 μg of PP-KLH in 1 ml subcutaneously.\n(§5) Batch 2: 6 SPF dogs, control.\n(§6) The two injections were administered subcutaneously, […].\nThe immunization phase was carried out from D-39 to D-1, (D0 being the day of challenge), with the first injection on D-35 and second on D-18.\nDuring this phase, the weight was measured on D-39, D-35, D-28, and D-7 (FIG. 15)."}, "PP peptide": {"tested_on": "PP peptide", "experiment": "Trial 1: anti-PP IgG ELISA of gerbils immunized with PP-KLH", "format": "in vivo, gerbil", "conditions": "three dilutions observed", "method": "An immunization/challenge protocol was carried out in order to evaluate the protection that can be provided by the PP peptide (SEQ ID No. 1) coupled to the KLH protein.\nas §3\nBatch 1: 10 gerbils, 2 injections of 30 μg of PP-KLH in 300 μl, subcutaneously.\nThe two injections in a volume of 300 μl were administered subcutaneously, two weeks apart. A challenge by intraperitoneal injection of 0.5 ml of a canicola culture with a titer of 90 to 100 TU (turbidimetry) diluted to 10^−2.5 was administered two weeks after the second injection. • Antigenic response: Monitoring by ELISA of the immune response of the gerbils against the PP peptide\nThe anti-PP antibodies were titered in the gerbil by means of an ELISA technique (described above) with a biotinylated anti-gerbil antiglobulin (BioAtlantic) at 1/3000 and, as visualizing agent, peroxidase-coupled streptavidin (RPN1231, Amersham pharmacia biotech).\nFor each batch of gerbils, the sera were combined with respect to the various sample dates D0 (before the first immunization), D14 (before the second immunization) and D28 (before the challenge).\nThe results of the IgG antibody response against the PP peptide, expressed as corrected OD (OD of the treated sera corrected with respect to the OD of the control sera), are given in FIG. 11."}, "[3]": {"tested_on": "Leptospira interrogans sl serovar canicola", "experiment": "Dogs immunized with PP-KLH, canicola challenge: clinical, hematological and biochemical parameters", "format": "in vivo, dog", "method": "as §2, §3, §4, §5, §6\nThe challenge (CH) was carried out on D0.\nas §1\nThe challenge phase was carried out from D-1 to […], with the challenge on D0.\nDuring this phase, the temperature was measured on D0, D1, D2, D3, D4, D5, D6 and D7.\nThe hematological parameters were measured on D-1, D3, D7, D10, D14, D15 and D41.\nThe biochemical parameters were measured on D-1, D3, D7, D10, D14, D18, D25 and D41."}, "[4]": {"tested_on": "Leptospira interrogans sl serovar canicola", "experiment": "Trial 2: gerbils immunized with PP-KLH or PP, 10^−2 canicola challenge", "format": "in vivo, gerbil", "parameters": "Mortality rate / Survival rate: unit not given here", "method": "An immunization/challenge trial was carried out in order to evaluate the protection that can be provided by the PP peptide (SEQ ID No. 1) coupled or not coupled to the KLH protein.\nThis construct is administered subcutaneously without adjuvant, and PBS is administered by the same route as the negative control (batch 3). • Batch 1: 12 gerbils, 2 injections of 30 μg of PP-KLH in 300 μl. • Batch 2: 12 gerbils, 2 injections of 30 μg of PP in 300 μl. • Batch 3: 15 gerbils, 2 injections of PBS in 300 A1.\nThe two injections in a volume of 300 μl were administered subcutaneously, two weeks apart. A challenge by intraperitoneal injection of 0.5 ml of a serovar canicola leptospiral culture with a titer of 90 to 100 TU (turbidimetry) diluted to 10^−2 was administered three weeks after the second injection."}, "[5]": {"tested_on": "Leptospira interrogans sl serovar canicola", "experiment": "Dogs immunized with PP-KLH, canicola challenge: clinical, hematological and biochemical parameters", "format": "in vivo, dog", "conditions": "at D4"}, "[6]": {"conditions": "Accumulation of the two trials, survival"}},
  "note": "No end group written: not given here.",
  "data": [
    {"substance": "PP-KLH: PP peptide with cysteine added at the N-terminal position, coupled via sulfo-MBS to KLH carrier protein (keyhole limpet hemocyanin) (KAKPVQKLDDDDDGDDTYKEERHNK; not fully specified (N-terminus))", "values": [
      {"measurement": "positive PCR/dogs", "setting": "[1]; Kidneys, D41", "value": "1/6"},
      {"measurement": "positive PCR/dogs", "setting": "[1]; Plasma, D0", "value": "0/6"},
      {"measurement": "positive PCR/dogs", "setting": "[1]; Plasma, D3", "value": "6/6"},
      {"measurement": "positive PCR/dogs", "setting": "[1]; Plasma, D7", "value": "0/6"},
      {"measurement": "positive PCR/dogs", "setting": "[1]; Urine, D14", "value": "2/6"},
      {"measurement": "positive PCR/dogs", "setting": "[1]; Urine, D18", "value": "1/6"},
      {"measurement": "positive PCR/dogs", "setting": "[1]; Urine, D25", "value": "3/6"},
      {"measurement": "positive PCR/dogs", "setting": "[1]; Urine, D41", "value": "4/6"},
      {"measurement": "tolerance in immunization phase", "setting": "[2]; SPF dogs, 2 s.c. injections of 250 μg without adjuvant", "value": "complete tolerance"},
      {"measurement": "p, evolution of mean increase in weights, control versus immunized dogs (not significantly different)", "setting": "[2]; between D-35 and D-7", "value": 0.8509},
      {"measurement": "boost effect of second injection: corrected OD at D28 relative to D14", "setting": "PP peptide", "value": "more than double"},
      {"measurement": "thrombocytopenia", "setting": "[3]; after challenge", "value": "significantly more pronounced in the controls than in the immunized dogs"},
      {"measurement": "p, difference in temperature, control versus immunized dogs (controls more pronounced febrile peak)", "setting": "[3]; at D3 and D4", "value": "< 0.05"},
      {"measurement": "P, evolution of mean increase in temperature, control versus immunized dogs (not significantly different)", "setting": "[3]; between D0 and D7", "value": 0.7944},
      {"measurement": "P, evolution of white blood cells, control versus immunized dogs (not significantly different)", "setting": "[3]; between D-1 and D41", "value": 0.4407},
      {"measurement": "p, evolution of mean variation in platelets, control versus immunized dogs (significantly different)", "setting": "[3]; between D-1 and D41", "value": 0.0412},
      {"measurement": "mortality following the challenge", "setting": "[3]; dogs, immunized and control", "value": "No mortality"},
      {"measurement": "protection against a canicola challenge in dogs", "setting": "[3]; overall conclusion", "value": "makes it possible to induce protection"},
      {"measurement": "p, tendency for higher urea level in the controls (no significant difference)", "setting": "[3]; period of acute effect in the kidneys (D0-D10)", "value": "< 0.15"},
      {"measurement": "p, urea level in the controls significantly higher", "setting": "[3]; period of kidney colonization (D10-D41)", "value": "< 0.02"},
      {"measurement": "Mortality rate", "setting": "[4]; 10^−2 canicola challenge", "value": 8.3},
      {"measurement": "Survival rate", "setting": "[4]; 10^−2 canicola challenge", "value": 91.6},
      {"measurement": "mortality in the group (dead/number)", "setting": "[4]; 10^−2 canicola challenge", "value": "1/12"},
      {"measurement": "gerbils at challenge", "setting": "[4]; 10^−2 canicola challenge, D0", "value": 12},
      {"measurement": "mortality of gerbils (dead/number)", "setting": "[4]; 10^−2 canicola challenge, D4", "value": "0/12"},
      {"measurement": "mortality of gerbils (dead/number)", "setting": "[4]; 10^−2 canicola challenge, D5", "value": "0/12"},
      {"measurement": "mortality of gerbils (dead/number)", "setting": "[4]; 10^−2 canicola challenge, D6", "value": "0/12"},
      {"measurement": "mortality of gerbils (dead/number)", "setting": "[4]; 10^−2 canicola challenge, D7", "value": "0/12"},
      {"measurement": "mortality of gerbils (dead/number)", "setting": "[4]; 10^−2 canicola challenge, D8", "value": "0/12"},
      {"measurement": "mortality of gerbils (dead/number)", "setting": "[4]; 10^−2 canicola challenge, D9", "value": "1/12"},
      {"measurement": "mortality of gerbils (dead/number)", "setting": "[4]; 10^−2 canicola challenge, D10", "value": "0/11"},
      {"measurement": "mortality of gerbils (dead/number)", "setting": "[4]; 10^−2 canicola challenge, D11", "value": "0/11"},
      {"measurement": "mortality of gerbils (dead/number)", "setting": "[4]; 10^−2 canicola challenge, D12", "value": "0/11"},
      {"measurement": "mortality of gerbils (dead/number)", "setting": "[4]; 10^−2 canicola challenge, D13", "value": "0/11"},
      {"measurement": "mortality of gerbils (dead/number)", "setting": "[4]; 10^−2 canicola challenge, D14", "value": "0/11"},
      {"measurement": "mortality of gerbils (dead/number)", "setting": "[4]; 10^−2 canicola challenge, D15", "value": "0/11"},
      {"measurement": "mortality of gerbils (dead/number)", "setting": "[4]; 10^−2 canicola challenge, D16", "value": "0/11"},
      {"measurement": "mortality of gerbils (dead/number)", "setting": "[4]; 10^−2 canicola challenge, D17", "value": "0/11"},
      {"measurement": "mortality of gerbils (dead/number)", "setting": "[4]; 10^−2 canicola challenge, D28", "value": "0/11"},
      {"measurement": "p, log-rank test versus control", "setting": "[4]; [6]", "value": "<2.10^−3"},
      {"measurement": "χ^2, log-rank test versus control", "setting": "[4]; [6]", "value": 10.1},
      {"measurement": "p, log-rank test versus control", "setting": "[4]; Experiment 2, survival", "value": "<1.10^−2"},
      {"measurement": "χ^2, log-rank test versus control", "setting": "[4]; Experiment 2, survival", "value": 6.84},
      {"measurement": "p, monocyte depletion observed only in the controls", "setting": "[5]", "value": 0.05},
      {"measurement": "p, transient leukopenia greater in control than in immunized dogs", "setting": "[5]", "value": "< 0.05"},
      {"measurement": "lymphopenia", "setting": "[5]; significant in the controls", "value": "not noted at all"}
    ]}
  ]
}
